# Measurements from US10525101B2, “Methods of treating inflammatory or autoimmune disorders with compounds that bind macrophage migration inhibitory factor” (Oregon Health & Science University, priority 2015, dated 2020).
# Ends that are not written are not given here.
# T1: human MIF (hMIF) (Homo sapiens, UniProt P14174)
# T1 sequence (P14174 2-115 limits assumed): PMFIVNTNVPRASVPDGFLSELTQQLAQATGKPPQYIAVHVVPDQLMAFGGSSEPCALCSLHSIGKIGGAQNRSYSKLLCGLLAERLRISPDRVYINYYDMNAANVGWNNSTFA
# B1: DRα1-MOG-35-55: second generation derivative of RTL1000, partial MHC molecule DRα1 construct that binds CD74 (protein)
# chain: MEVGWYRSPFSRVVHLYRNGKGGGGSLVPRGSGGGGIKEEHVIIQAEFYLNPDQSGEFMFDFDGDEIFHVDMAKKETVWRLEEFGRFASFEAQGALANIAVDKANLEIMTKRSNYTPITN
# Tests used:
# [1] = molecular target: T1, human MIF (hMIF); test: Competition ELISA: peptides blocking rmCD74 binding to plate-coated hMIF; conditions: FIG. 2A/2B
# Experimental: The ability of α-helix 1 and α-helix 2 peptides to compete with MIF for binding to CD74 was tested. Briefly, 50 μl of hMIF at a concentration of 0.5 μg/ml in PBS was coated onto ELISA plates for 2 hours at RT, washed 4 times with […] of PBS/0.0125% T20, blocked with 300 μl of 5% BSA in PBS, pH 7.4 for 2 hours at room temperature, and then a mixture of rmCD74 (constant concentration of 0.5 μg/ml) and competitor (SEQ ID NO: 2, SEQ ID NO: 4) at an initial concentration of 66 μM (33 μM each, mixed or 66 μM each, separately) in 5% BSA/PBS was added to the wells for 3 hours at room temperature to allow binding. Wells were thoroughly washed with PBS/T20 and the mAb PIN.1/anti-mIgG1-HRP (at 0.5 μg/ml in 5% BSA/PBS each) was used to detect the remaining rmCD74 bound to MIF. This mAb recognizes an epitope located at the N-terminus of the protein. Color was developed after adding 50 μl of TMB for 5 minutes and the reaction was stopped with 50 μl of 0.1N HCl. Data was first normalized and then analyzed using GraphPad Prism software. IC50 were calculated by fitting the curve to a competition model involving a two-binding site equation.
# [2] = system: DRα1mMOG-35-55; test: Competition ELISA: peptides competing with rmCD74 for binding to plate-coated DRα1mMOG-35-55; conditions: for competition with CD74 for binding to DRα1-mMOG-35-55 (in words): FIG. 3A, FIGS. 4A/4B; for IC50: FIGS. 4A and 4B, peptides combined or alone, read-out: IC50 for blocking rmCD74 binding to DRα1mMOG-35-55; for LogIC50 vs DRα1mMOG-35-55 / IC50 vs DRα1mMOG-35-55: Table 1, from FIG. 3A, one-binding site fit; for IC50 vs DRα1mMOG-35-55: rmCD74 50 nM
# Experimental: (§1) Competition of peptides with rmCD74 for binding to RTL1000 or DRα1mMOG35-55 was also tested. Briefly, 50 μl of 1 μg/ml either RTL1000 or DRα1mMOG-35-55 were coated onto ELISA plates at 25° C. for 2 hours. Each well was washed 4 times with 300 μl of PBS/0.0125% Tween 20 (PBS/T20) to remove excess of protein and then blocked with 5% BSA/PBS at pH 7.4 (BSA/PBS) for 2 hours at the same temperature. Serial 1:2 dilutions of α-helix 1 or α-helix 2 (starting with a concentration of 66 μM, 50 μg/ml each) were prepared in rmCD74 (in BSA/PBS, 50 nM, 0.5 ug/ml) and added to the plate. Competition for the binding site was allowed for 3 hours at 25° C. and then unbound complexes were washed 4 times with PBS/T20. Remaining rmCD74 bound to RTL1000 or DRα1mMOG-35-55 was detected by the PIN.1/anti-mouse IgG1-HRP at 1 ul/ml of both in BSA/PBS for 1.5 hours at 25° C. and visualized by adding TMB substrate (50 μl, according to the manufacturer's instructions). Color development was stopped with 0.1N HCl and the plate was read at 450 nm in an ELISA plate reader. Data were normalized and fitted to a one-binding site model and competitor concentration was plotted against Absorbance at 450 nm to determine the IC50 of each peptide competitor. All data were analyzed using Prism software (GraphPad).
# [3] = system: RTL1000; test: Competition ELISA: peptides competing with rmCD74 for binding to plate-coated RTL1000; conditions: for competition with CD74 for binding to RTL1000 (in words): FIG. 3A; for LogIC50 vs RTL 1000 / IC50 vs RTL 1000: Table 1, from FIG. 3A, one-binding site fit; for IC50 vs RTL 1000: rmCD74 50 nM, in µM
# Experimental: as §1
# [4] = system: experimental autoimmune encephalomyelitis (EAE); conditions: mice with EAE, treated after onset of clinical signs; cited from earlier work
Molecule,blocking of rmCD74 binding to human MIF (in words) [1],competition with CD74 for binding to DRα1-mMOG-35-55 (in words) [2],competition with CD74 for binding to DRα1-mMOG-35-55 (in words) ([2]; listed as SEQ ID NO: 4),IC50 [2],LogIC50 vs DRα1mMOG-35-55 [2],IC50 vs DRα1mMOG-35-55 [2],competition with CD74 for binding to RTL1000 (in words) [3],LogIC50 vs RTL 1000 [3],IC50 vs RTL 1000 [3],blocking of rmCD74 binding to human MIF (in words) ([1]; listed as SEQ ID NO: 2),effect on EAE (in words) [4]
KGSFPENLRHLKNTMET [α-helix 2],to a lesser extent,did not have a significant effect,competes to a lesser extent,24.5 µM,2.222,166.6,competes to a lesser extent,1.535,34.27,–,–
TEDHVMHLLQNAD [α-helix 1],blocks CD74 binding to hMIF,able to outcompete,–,35 µM,1.002,10.05,able to outcompete,0.8309,6.775,able to block,–
B1,–,–,–,–,–,–,–,–,–,–,reduced disease severity
